Results on 1 compound are retold here after ChEMBL document CHEMBL5136995, “Structure-based optimization of hydroxylactam as potent, cell-active inhibitors of lactate dehydrogenase” (Bioorg Med Chem Lett, 2022).

Structures are written as SMILES.

A short description of data set [1]: AUC in mouse at 5 mg/kg, po. In kind it is ADME, organism-based. Also noted: dose 5 mg/kg, route po. The settings on record: in vivo.
The nature of data set [2]: AUC in mouse at 1 mg/kg, iv. In kind it is ADME, organism-based. Also noted: dose 1 mg/kg, route iv. The settings on record: in vivo.
Data set [3] deals with L-lactate dehydrogenase A chain (Homo sapiens, UniProt P00338). Briefly: Inhibition of LDHA (unknown origin).
Data set [4] is described as follows: Inhibition of lactate production in human MIA PaCa-2 cells. It counts as functional, cell-based.
Data set [5] in a line: Lipophilicity, logD of compound. It counts as physicochemical. The conditions noted are these: octanol/water.
Data set [6] in a line: Cmax in mouse at 100 mg/kg, po. It counts as ADME, organism-based. The settings on record: in vivo. Also on record: dose 100 mg/kg, route po.
Data set [7] is described as follows: Apparent permeability across apical to basolateral side in MDCK cells at 100 uM by HPLC analysis. It counts as ADME, cell-based, Canis lupus familiaris. The conditions noted are these: dog.
Data set [8] is described as follows: Plasma protein binding in mouse. It counts as ADME, cell-free. The conditions noted are these: read-out: PPB.
Data set [9] in a line: AUC in mouse at 50 mg/kg, po. In kind it is ADME, organism-based. Also noted: dose 50 mg/kg, route po. The conditions noted are these: in vivo.
Data set [10] is described as follows: AUC in mouse at 100 mg/kg, po. In kind it is ADME, organism-based. Also on record: dose 100 mg/kg, route po. The settings on record: in vivo.
Data set [11] is described as follows: AUC in mouse at 200 mg/kg, po. In kind it is ADME, organism-based. Also on record: dose 200 mg/kg, route po. The conditions noted are these: in vivo.
The nature of data set [12]: Cmax in mouse at 1 mg/kg, iv. In kind it is ADME, organism-based. Also noted: dose 1 mg/kg, route iv. The settings on record: in vivo.
The nature of data set [13]: Cmax in mouse at 5 mg/kg, po. Also noted: dose 5 mg/kg, route po. The settings on record: in vivo. It counts as ADME, organism-based.
Data set [14] is described as follows: Cmax in mouse at 50 mg/kg, po. It counts as ADME, organism-based. Also on record: dose 50 mg/kg, route po. The settings on record: in vivo.
A short description of data set [15]: Cmax in mouse at 200 mg/kg, po. In kind it is ADME, organism-based. The conditions noted are these: in vivo. Also noted: dose 200 mg/kg, route po.
The nature of data set [16]: Oral bioavailability in mouse at 5 mg/kg. It counts as ADME, organism-based. The settings on record: in vivo.
The nature of data set [17]: Half-life in mouse at 1 mg/kg, iv. It counts as ADME, organism-based. The conditions noted are these: in vivo.
Data set [18] can be described thus: Volume of distribution at steady state in mouse at 1 mg/kg, iv. The conditions noted are these: in vivo, read-out: Vdss. It counts as ADME, organism-based.
The nature of data set [19]: Clearance in mouse at 1 mg/kg, iv. In kind it is ADME, organism-based. The settings on record: in vivo.
Data set [20] can be described thus: Toxicity in mouse xenografted with human MIA PaCa-2 cells assessed as effect on body weight at 200 to 400 mg/kg administered twice a day for 28 days. In kind it is organism-based. The conditions noted are these: in vivo, 672 h, dose 200-400 mg/kg, time 28 day.

One may read the AUC as the area under the concentration-time curve, a measure of exposure. A high value points to more exposure. As usually defined, the IC50 is the concentration that inhibits the measured activity by half. For orientation: logD means lipophilicity at a set pH, counting ionised and neutral species. A higher logD goes with higher lipophilicity. As a reminder, the Cmax is the maximum level reached in the sampled fluid or tissue. As usually defined, the Papp A→B is the apparent permeability from the apical to the basolateral side of a cell layer. Broadly, the bioavailability is dose-corrected exposure relative to a reference, in per cent. High values mean much systemic uptake, low ones little systemic uptake. One may read the half-life as the time needed for the level to fall by half in the phase considered. The clearance is a measure of how efficiently the substance is removed, as volume per time. A low value points to inefficient removal.

Turning to `O=C1N[C@](c2cccc(Nc3ccc(F)cc3)n2)(c2cccc(Nc3ccc(F)c(F)c3)n2)CC(O)=C1Sc1ccccc1Cl`, the AUC in data set [1] came out at 19.4 µM·h; in data set [2] it was 6.5 µM·h; in [9] it was 71.2 µM·h; in data set [10], 235 µM·h; in data set [11], 411 µM·h. For the same compound, the IC50 was found to be 0.0016 µM in [3] and 2 µM in [4]. Also, in data set [5], the logD came to 2.2. The Cmax in data set [6] was determined as 66.9 µM; in [12], 7.36 µM; in data set [13] it was 5.95 µM; in [14], 23.3 µM; in data set [15], 117 µM. The Papp A→B at 100 µM in data set [7] turned out to be 46 nm/s. Moreover, the fraction unbound in [8] came out at 0.001. In data set [16], this compound registered a bioavailability of 59.5%. For the same compound, the half-life in data set [17] was 2.81 h. The Vd in data set [18] came to 0.671 L/kg. This compound also returned a clearance in data set [19] of 0.293 L/h/kg. For the same compound, in data set [20], the Activity result is listed as “Non-Toxic”.
